One block for each molecule: values may come before it.
Legend:
[1] = Binding affinity to human plasma AGP by isothermal titration calorimetry; type: ADME
[2] = Displacement of [3H]-3-(1-(3-chloro-6-isopropyl-8-(trifluoromethyl)imidazo[1,2-a]pyridine-2-carbonyl)piperidin-4-yl)oxazolidin-2-one from HCV genotype 1b C-terminal His6-tagged NS4B (1 to 261 residues) expressed in baculovirus infected insect SF9 cells; set-up: species or system Hepatitis C virus subtype 1b
[3] = Binding affinity to HSP70 (unknown origin) by surface plasmon resonance method; set-up: species or system Homo sapiens
Interleukin-2 = Interleukin-2 (Homo sapiens, UniProt P60568); assay: Binding affinity to human IL-2 measured over 30 mins by fluorescence polarization assay
Interleukin-2, sequence (P60568 whole entry, the tested form may be a part): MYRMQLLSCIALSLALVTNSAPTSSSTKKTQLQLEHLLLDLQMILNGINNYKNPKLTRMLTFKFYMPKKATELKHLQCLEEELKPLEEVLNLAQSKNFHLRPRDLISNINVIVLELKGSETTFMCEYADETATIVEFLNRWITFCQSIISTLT

[4] = target: Proto-oncogene tyrosine-protein kinase Src (Gallus gallus, UniProt P00523); assay: Inhibition of chicken Src kinase domain using AEEEIYGEFAKKK as substrate by continuous spectrophotometric assay
[5] = target: T1, 2',5'-phosphodiesterase 12 (Homo sapiens, UniProt Q6L8Q7); assay: Inhibition of human PDE12 (17 to 609 residues) expresssed in Escherichia coli BL21(DE3) cells using 2-5A as substrate assessed as AMP monomers and ATP formation after 30 mins by AMP-Glo assay
T1 sequence (Q6L8Q7 whole entry): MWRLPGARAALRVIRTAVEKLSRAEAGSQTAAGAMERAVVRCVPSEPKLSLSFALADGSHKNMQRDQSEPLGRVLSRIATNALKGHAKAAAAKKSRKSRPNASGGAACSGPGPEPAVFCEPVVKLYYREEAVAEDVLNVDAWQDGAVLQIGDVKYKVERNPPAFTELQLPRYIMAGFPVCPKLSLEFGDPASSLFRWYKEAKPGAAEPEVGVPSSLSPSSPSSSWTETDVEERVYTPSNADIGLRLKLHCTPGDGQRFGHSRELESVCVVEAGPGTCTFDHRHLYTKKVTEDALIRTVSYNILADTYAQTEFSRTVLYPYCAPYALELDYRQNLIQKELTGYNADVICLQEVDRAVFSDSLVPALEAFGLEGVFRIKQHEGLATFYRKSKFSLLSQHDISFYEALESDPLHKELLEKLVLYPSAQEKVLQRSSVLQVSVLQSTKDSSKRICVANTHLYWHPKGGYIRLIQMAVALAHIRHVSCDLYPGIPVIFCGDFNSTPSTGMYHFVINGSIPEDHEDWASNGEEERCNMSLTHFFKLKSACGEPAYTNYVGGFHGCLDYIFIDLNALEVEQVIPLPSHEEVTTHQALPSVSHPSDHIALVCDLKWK

Protein phosphatase 1D = target: T2, Protein phosphatase 1D (Homo sapiens, UniProt O15297); assay: Inhibition of human Wip1 (2 to 420 residues) expressed in baculovirus-infected insect SF9 cells assessed as fluorescein diphosphate hydrolysis after 5 mins by fluorescence assay
T2 sequence (O15297 whole entry): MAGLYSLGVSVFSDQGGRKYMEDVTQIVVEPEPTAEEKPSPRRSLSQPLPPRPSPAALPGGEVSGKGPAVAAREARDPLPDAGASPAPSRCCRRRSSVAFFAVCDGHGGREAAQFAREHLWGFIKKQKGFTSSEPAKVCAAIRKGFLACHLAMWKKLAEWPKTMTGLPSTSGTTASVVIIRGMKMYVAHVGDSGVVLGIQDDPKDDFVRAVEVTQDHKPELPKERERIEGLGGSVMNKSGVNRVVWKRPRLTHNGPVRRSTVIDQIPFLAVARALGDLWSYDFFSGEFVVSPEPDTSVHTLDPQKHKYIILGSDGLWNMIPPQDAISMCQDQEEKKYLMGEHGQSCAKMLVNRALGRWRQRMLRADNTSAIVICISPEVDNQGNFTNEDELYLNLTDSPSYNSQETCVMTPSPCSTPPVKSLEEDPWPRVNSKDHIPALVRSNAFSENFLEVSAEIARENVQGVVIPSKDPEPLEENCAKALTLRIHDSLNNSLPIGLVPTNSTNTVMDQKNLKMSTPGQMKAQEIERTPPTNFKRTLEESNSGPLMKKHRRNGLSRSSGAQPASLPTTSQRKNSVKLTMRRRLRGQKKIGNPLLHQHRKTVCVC

MAP kinase p38 = MAP kinase p38 (Homo sapiens, UniProt O15264+Q15759+Q16539+P53778); assay: Inhibition of p38 MAPK (unknown origin); type: protein assay

Structure (SMILES): O=C(c1ccc2[nH]ccc2c1)N1CCC2(CCCN(c3ncc(-c4ccccc4)c(-c4ccc(Cl)cc4)n3)C2)CC1
IC50 [2]: 42 nM

Structure (SMILES): O=C1/C=C\C(=O)N[C@@H](CC2CCCCC2)C(=O)N[C@@H](Cc2ccccc2)C(=O)N[C@@H](CCCNC(=O)c2cnccn2)C(=O)NCC[C@@H](C(=O)O)N1
IC50 [4]: 4 nM

Structure (SMILES): CCn1cc(-c2nc3cc(Br)c(C(=O)N4CCO[C@@H](c5ccc(F)cc5)[C@@H]4CO)cc3n2C)c2ccc(C#N)cc21
IC50 [5]: 0.8 nM

Structure (SMILES): Cc1ncc(Cl)cc1NCc1ccc(C(=O)N[C@@H](CC2CCCC2)C(=O)NC2CC2)s1
IC50 (Protein phosphatase 1D): 6 nM

Structure (SMILES): CNC(=O)C(Cc1ccc2c(c1)COC(C)(C)O2)Nc1nc(O)nc(-n2ccc3ccc(C(=O)N4CCCc5ccccc54)cc32)n1 (stereo not drawn)
IC50 (MAP kinase p38): 7 nM

Now from value to molecule:

Kd [1]: 5800 nM
Structure (SMILES): Cc1ccc(S(=O)(=O)N(CC(=O)NCCOCCC(=O)NCCOCCC(=O)N[C@@H](CCCCNC(=O)/C=C/c2ccc(-c3ccccc3C(F)(F)F)o2)C(=O)O)c2ccccc2-c2ccccc2)cc1

Kd [3]: 0.64 nM
Structure (SMILES): NC(=O)C(CNC(=O)c1ccc2[nH]nc(Br)c2c1)NC(=O)c1cccc(NC(=O)CCC(=O)c2ccc(-c3ccccc3)cc2)c1 (stereo not drawn)

Kd (Interleukin-2): 4200 nM
Structure (SMILES): CCCC#Cc1ccc(C[C@@H](NC(=O)CCn2c(C)cc3ccccc32)C(=O)O)cc1

Reference: ChEMBL document CHEMBL4425089, “Chemical Space of DNA-Encoded Libraries” (J Med Chem, 2016)
